Data taken from US20260116920A1, “HUMAN TRANSFERRIN RECEPTOR BINDING PEPTIDE” (PEPTIDREAM INC., priority 2021, published 2026).
Where two headings read alike, the source gives them in different places. Positions of bridges follow the written chain, without caps; N, C: chain ends. Non-standard residues stand in square brackets, D forms with d. Residues, ends and D or L forms follow the SMILES beside them. *: point of attachment. Trp(1-CH2COOH) = N[C@@H](Cc1cn(CC(=O)O)c2ccccc12)C(=O)O; Nle(6-morpholino) = N[C@@H](CCCCN1CCOCC1)C(=O)O; Phe(3-COOH) = N[C@@H](Cc1cccc(C(=O)O)c1)C(=O)O; Trp(7-aza) = N[C@@H](Cc1c[nH]c2ncccc12)C(=O)O; NH(CH2CH2O)8Me = COCCOCCOCCOCCOCCOCCOCCOCCN*; NMePhe(3-Cl) = CN[C@@H](Cc1cccc(Cl)c1)C(=O)O; 3Pal(6-NH2) = Nc1ccc(C[C@H](N)C(=O)O)cn1; Lys(N3) = [N-]=[N+]=NCCCC[C@H](N)C(=O)O; NMeY = CN[C@@H](Cc1ccc(O)cc1)C(=O)O; 3Pal = N[C@@H](Cc1cccnc1)C(=O)O; 4Pal = N[C@@H](Cc1ccncc1)C(=O)O; PEG4 = NCCOCCOCCOCCOCCC(=O)O; Carboxymethyl = O=C(O)C*; NHCH2CH2OMe = COCCN*

Target: T1, human transferrin receptor (hTfR) (Homo sapiens, UniProt P02786)
T1 construct: made in house
T1 sequence (P02786 89-760 limits assumed): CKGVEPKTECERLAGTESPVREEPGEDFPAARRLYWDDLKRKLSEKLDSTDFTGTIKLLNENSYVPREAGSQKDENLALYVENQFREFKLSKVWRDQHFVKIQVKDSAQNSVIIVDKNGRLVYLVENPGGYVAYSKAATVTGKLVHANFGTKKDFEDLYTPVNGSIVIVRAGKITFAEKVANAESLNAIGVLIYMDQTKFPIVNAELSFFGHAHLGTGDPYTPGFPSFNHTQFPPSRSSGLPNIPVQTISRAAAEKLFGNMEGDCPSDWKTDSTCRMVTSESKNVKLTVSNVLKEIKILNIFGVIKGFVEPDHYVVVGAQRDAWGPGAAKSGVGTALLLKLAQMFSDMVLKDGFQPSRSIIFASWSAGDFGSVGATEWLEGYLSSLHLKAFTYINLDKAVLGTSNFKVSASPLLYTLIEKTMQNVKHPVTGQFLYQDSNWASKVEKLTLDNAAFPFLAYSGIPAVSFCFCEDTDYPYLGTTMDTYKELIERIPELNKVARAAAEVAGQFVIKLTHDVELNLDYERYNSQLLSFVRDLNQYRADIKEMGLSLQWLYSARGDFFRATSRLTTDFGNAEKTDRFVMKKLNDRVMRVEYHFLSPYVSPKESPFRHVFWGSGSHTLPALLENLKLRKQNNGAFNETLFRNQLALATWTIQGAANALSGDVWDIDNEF
Experiment: Evaluation of molecular interaction between transferrin receptor (hTfR) and peptide using surface plasmon resonance (SPR)
Type: binding
In short: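 KD values are derived by least-squares fitting of single-cycle kinetic sensorgrams. Peptide series (5–100 nM) flows over recombinant hTfR dimer immobilized on a Ni-NTA chip by EDC/NHS coupling, in pH 8.0 HEPES buffer containing 0.1% BSA and 1.0% DMSO.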

[1] = surface plasmon resonance, binding to hTfR, KD class symbol, read-out: SPR (KD value)
[2] = KD class for binding to hTfR by SPR, peptide with the linker shown in the same line, 'low signal indicates no activity', read-out: SPR

| SMILES | Kd [1] [nM] | Kd [2] [nM] | also measured |
| --- | --- | --- | --- |
| CC[C@H](C)[C@@H]1NC(=O)[C@H](Cc2ccc(OCC(=O)O)cc2)NC(=O)[C@H](Cc2ccc(O)cc2)NC(=O)[C@H](CC(N)=O)NC(=O)[C@H](Cc2c[nH]c3ccccc23)NC(=O)[C@H](C(C)C)NC(=O)[C@H](Cc2cccc(Cl)c2)N(C)C(=O)[C@H](C(C)C)NC(=O)[C@H](C)NC(=O)CSC[C@@H](C(=O)NCCOCCOCCOCCOCCC(N)=O)NC(=O)[C@H](Cc2ccc(O)cc2)N(C)C(=O)[C@H](Cc2cccc(C(=O)O)c2)NC(=O)[C@H](CCC(=O)NCCOCCOCCOCCOCCOCCOCCOCCOC)NC(=O)[C@H](CCCNC(=N)N)NC(=O)[C@H]([C@@H](C)CC)NC1=O [compound 95] ({CH2CO}-AV[NMePhe(3-Cl)]VWNYY(Carboxymethyl)IIRE(NH(CH2CH2O)8Me)[Phe(3-COOH)][NMeY]C[PEG4]-NH2; thioether N-15) | 1 to 100 | – | – |
| CC[C@H](C)[C@@H]1NC(=O)[C@H](Cc2cccnc2)NC(=O)[C@H](Cc2ccc(N)nc2)NC(=O)[C@H](CC(N)=O)NC(=O)[C@H](Cc2c[nH]c3ccccc23)NC(=O)[C@H](C(C)C)NC(=O)[C@H](Cc2cccc(Cl)c2)N(C)C(=O)[C@H](C(C)C)NC(=O)[C@H](C)NC(=O)CSC[C@@H](C(=O)NCC(=O)N[C@@H](CCCCN=[N+]=[N-])C(N)=O)NC(=O)[C@H](Cc2ccc(O)cc2)N(C)C(=O)[C@H](Cc2ccncc2)NC(=O)[C@H](CCCNC(=N)N)NC(=O)[C@H](CCCNC(=N)N)NC(=O)[C@H]([C@@H](C)CC)NC1=O [894_3189] ({CH2CO}-AV[NMePhe(3-Cl)]VWN[3Pal(6-NH2)][3Pal]IIRR[4Pal][NMeY]CG[Lys(N3)]-NH2; thioether N-15) | – | 1 to 100 | – |
| CC[C@H](C)[C@@H]1NC(=O)[C@H](Cc2ccc(OCC(=O)O)cc2)NC(=O)[C@H](Cc2ccc(O)cc2)NC(=O)[C@H](CC(N)=O)NC(=O)[C@H](Cc2cn(CC(=O)O)c3ccccc23)NC(=O)[C@H](C(C)C)NC(=O)[C@H](Cc2cccc(Cl)c2)N(C)C(=O)[C@H](C(C)C)NC(=O)[C@H](C)NC(=O)CSC[C@@H](C(=O)NCCOCCOCCOCCOCCC(N)=O)NC(=O)[C@H](Cc2ccc(O)cc2)N(C)C(=O)[C@H](Cc2cccc(C(=O)O)c2)NC(=O)[C@H](CCC(=O)NCCOC)NC(=O)[C@H](CCC(=O)NCCOC)NC(=O)[C@H]([C@@H](C)CC)NC1=O [894_0329] ({CH2CO}-AV[NMePhe(3-Cl)]V[Trp(1-CH2COOH)]NYY(Carboxymethyl)IIE(NHCH2CH2OMe)E(NHCH2CH2OMe)[Phe(3-COOH)][NMeY]C[PEG4]-NH2; thioether N-15) | – | 1 to 100 | – |
| CC[C@H](C)[C@@H]1NC(=O)[C@H](Cc2ccc(OC)cc2)NC(=O)[C@H](Cc2ccc(N)nc2)NC(=O)[C@H](CC(N)=O)NC(=O)[C@H](Cc2c[nH]c3ncccc23)NC(=O)[C@H](C(C)C)NC(=O)[C@H](Cc2cccc(Cl)c2)N(C)C(=O)[C@H](C(C)C)NC(=O)[C@H](C)NC(=O)CSC[C@@H](C(=O)NCCOCCOCCOCCOCCC(N)=O)NC(=O)[C@H](Cc2ccc(O)cc2)N(C)C(=O)[C@H](Cc2ccncc2)NC(=O)[C@H](CCCCN2CCOCC2)NC(=O)[C@H](CCC(=O)NCCOCCOCCOCCOCCOCCOCCOCCOC)NC(=O)[C@H]([C@@H](C)CC)NC1=O [compound 236] ({CH2CO}-AV[NMePhe(3-Cl)]V[Trp(7-aza)]N[3Pal(6-NH2)]Y(Me)IIE(NH(CH2CH2O)8Me)[Nle(6-morpholino)][4Pal][NMeY]C[PEG4]-NH2; thioether N-15) | – | – | Kd (peptide with linker, surface plasmon resonance, read-out: SPR (KD class for binding to hTfR)): 1 to 100 nM |
| CC[C@H](C)[C@@H]1NC(=O)[C@H](Cc2ccc(OC)cc2)NC(=O)[C@H](Cc2ccc(O)cc2)NC(=O)[C@H](CC(N)=O)NC(=O)[C@H](Cc2cn(CC(=O)O)c3ccccc23)NC(=O)[C@H](C(C)C)NC(=O)[C@H](Cc2cccc(Cl)c2)N(C)C(=O)[C@H](C(C)C)NC(=O)[C@H](C)NC(=O)CSC[C@@H](C(=O)NCCOCCOCCOCCOCCC(N)=O)NC(=O)[C@H](Cc2ccc(O)cc2)N(C)C(=O)[C@H](Cc2ccncc2)NC(=O)[C@H](CCC(=O)NCCOCCOCCOCCOCCOCCOCCOCCOC)NC(=O)[C@H](CCCNC(=N)N)NC(=O)[C@H]([C@@H](C)CC)NC1=O [compound 78] ({CH2CO}-AV[NMePhe(3-Cl)]V[Trp(1-CH2COOH)]NYY(Me)IIRE(NH(CH2CH2O)8Me)[4Pal][NMeY]C[PEG4]-NH2; thioether N-15) | 1 to 100 | – | – |
| CC[C@H](C)[C@@H]1NC(=O)[C@H](Cc2ccc(OC)cc2)NC(=O)[C@H](Cc2ccc(O)cc2)NC(=O)[C@H](CC(N)=O)NC(=O)[C@H](Cc2c[nH]c3ccccc23)NC(=O)[C@H](C(C)C)NC(=O)[C@H](Cc2cccc(Cl)c2)N(C)C(=O)[C@H](C(C)C)NC(=O)[C@H](C)NC(=O)CSC[C@@H](C(=O)NCCOCCOCCOCCOCCC(N)=O)NC(=O)[C@H](Cc2ccc(O)cc2)N(C)C(=O)[C@H](Cc2cccc(C(=O)O)c2)NC(=O)[C@H](CCC(=O)NCCOCCOCCOCCOCCOCCOCCOCCOC)NC(=O)[C@H](CCCNC(=N)N)NC(=O)[C@H]([C@@H](C)CC)NC1=O [compound 90] ({CH2CO}-AV[NMePhe(3-Cl)]VWNYY(Me)IIRE(NH(CH2CH2O)8Me)[Phe(3-COOH)][NMeY]C[PEG4]-NH2; thioether N-15) | 1 to 100 | – | – |
